Results: ChEMBL document CHEMBL4257522, “Synthesis and preliminary anti-inflammatory and anti-bacterial evaluation of some diflunisal aza-analogs” (Medchemcomm, 2018)
The source made the active and inactive calls. The rule behind the calls is not given here.

Key:
[1] = tested on: Macrophage cell line; experiment: Cytotoxicity against human PBMC-differentiated macrophages treated for 24 hrs followed by compound washout and measured after 48 hrs by MTT assay; assay type: cell-based
[2] = tested on: Macrophage cell line; experiment: Antiinflammatory activity in human PBMC-differentiated macrophages assessed as inhibition of LPS-induced IL-8 production at 0.01 to 10 uM measured after 24 hrs by ELISA; assay type: functional, cell-based
[3] = tested on: Macrophage cell line; experiment: Antiinflammatory activity in human PBMC-differentiated macrophages assessed as inhibition of LPS-induced prostaglandin production at 0.01 to 10 uM measured after 24 hrs by ELISA; assay type: functional, cell-based
[4] = tested on: Macrophage cell line; experiment: Induction of IL-1beta production in human PBMC-differentiated macrophages after 24 hrs by ELISA; assay type: cell-based
[5] = tested on: Macrophage cell line; experiment: Induction of prostaglandin production in human PBMC-differentiated macrophages after 24 hrs by ELISA; assay type: cell-based
[6] = tested on: Klebsiella pneumoniae; experiment: Toxicity in Klebsiella pneumoniae ATCC 13883 up to 32 uM measured after 16 hrs; assay type: organism-based
[7] = tested on: Enterococcus faecium; experiment: Toxicity in Enterococcus faecium ATCC 700221 up to 32 uM measured after 16 hrs; assay type: organism-based; settings: in vitro
[8] = tested on: Escherichia coli; experiment: Toxicity in Escherichia coli ATCC 43894 up to 32 uM measured after 16 hrs; assay type: organism-based
[9] = tested on: Staphylococcus aureus; experiment: Potentiation of methicillin-induced antibacterial activity against Staphylococcus aureus ATCC 33592 assessed as minimum modulatory concentration up to 32 uM measured after 16 hrs in presence of MIC/4 methicillin; assay type: functional; settings: ATCC 33592, 16 h, read-out: MEC
[10] = tested on: Staphylococcus aureus; experiment: Potentiation of geneticin-induced antibacterial activity against Staphylococcus aureus ATCC 33592 assessed as minimum modulatory concentration up to 32 uM measured after 16 hrs in presence of MIC/4 geneticin; assay type: functional; settings: ATCC 33592, 16 h, read-out: MEC
[11] = tested on: Staphylococcus aureus; experiment: Potentiation of ciprofloxacin-induced antibacterial activity against Staphylococcus aureus ATCC 33592 assessed as minimum modulatory concentration up to 32 uM measured after 16 hrs in presence of MIC/4 ciprofloxacin; assay type: functional; settings: ATCC 33592, 16 h, read-out: MEC
[12] = tested on: Staphylococcus aureus; experiment: Potentiation of tetracycline-induced antibacterial activity against Staphylococcus aureus ATCC 33592 assessed as minimum modulatory concentration up to 32 uM measured after 16 hrs in presence of MIC/4 tetracycline; assay type: functional; settings: ATCC 33592, 16 h, read-out: MEC
[13] = tested on: Staphylococcus aureus; experiment: Potentiation of erythromycin-induced antibacterial activity against Staphylococcus aureus ATCC 33592 assessed as minimum modulatory concentration up to 32 uM measured after 16 hrs in presence of MIC/4 erythromycin; assay type: functional; settings: ATCC 33592, 16 h, read-out: MEC
[14] = tested on: Streptococcus pyogenes; experiment: Potentiation of methicillin-induced antibacterial activity against Streptococcus pyogenes ATCC 14289 assessed as minimum modulatory concentration up to 32 uM measured after 16 hrs in presence of MIC/4 methicillin; assay type: functional; settings: ATCC 14289, 16 h, read-out: MEC
[15] = tested on: Streptococcus pyogenes; experiment: Potentiation of geneticin-induced antibacterial activity against Streptococcus pyogenes ATCC 14289 assessed as minimum modulatory concentration up to 32 uM measured after 16 hrs in presence of MIC/4 geneticin; assay type: functional; settings: ATCC 14289, 16 h, read-out: MEC
[16] = tested on: Streptococcus pyogenes; experiment: Potentiation of ciprofloxacin-induced antibacterial activity against Streptococcus pyogenes ATCC 14289 assessed as minimum modulatory concentration up to 32 uM measured after 16 hrs in presence of MIC/4 ciprofloxacin; assay type: functional; settings: ATCC 14289, 16 h, read-out: MEC
[17] = tested on: Streptococcus pyogenes; experiment: Potentiation of tetracycline-induced antibacterial activity against Streptococcus pyogenes ATCC 14289 assessed as minimum modulatory concentration up to 32 uM measured after 16 hrs in presence of MIC/4 tetracycline; assay type: functional; settings: ATCC 14289, 16 h, read-out: MEC
[18] = tested on: Streptococcus pyogenes; experiment: Potentiation of erythromycin-induced antibacterial activity against Streptococcus pyogenes ATCC 14289 assessed as minimum modulatory concentration up to 32 uM measured after 16 hrs in presence of MIC/4 erythromycin; assay type: functional; settings: ATCC 14289, 16 h, read-out: MEC
[19] = tested on: Klebsiella pneumoniae; experiment: Potentiation of methicillin-induced antibacterial activity against Klebsiella pneumoniae ATCC 13883 assessed as minimum modulatory concentration up to 32 uM measured after 16 hrs in presence of MIC/4 methicillin; assay type: functional; settings: ATCC 13883, 16 h, read-out: MEC
[20] = tested on: Klebsiella pneumoniae; experiment: Potentiation of geneticin-induced antibacterial activity against Klebsiella pneumoniae ATCC 13883 assessed as minimum modulatory concentration up to 32 uM measured after 16 hrs in presence of MIC/4 geneticin; assay type: functional; settings: ATCC 13883, 16 h, read-out: MEC
[21] = tested on: Klebsiella pneumoniae; experiment: Potentiation of ciprofloxacin-induced antibacterial activity against Klebsiella pneumoniae ATCC 13883 assessed as minimum modulatory concentration up to 32 uM measured after 16 hrs in presence of MIC/4 ciprofloxacin; assay type: functional; settings: ATCC 13883, 16 h, read-out: MEC
[22] = tested on: Klebsiella pneumoniae; experiment: Potentiation of tetracycline-induced antibacterial activity against Klebsiella pneumoniae ATCC 13883 assessed as minimum modulatory concentration up to 32 uM measured after 16 hrs in presence of MIC/4 tetracycline; assay type: functional; settings: ATCC 13883, 16 h, read-out: MEC
[23] = tested on: Klebsiella pneumoniae; experiment: Potentiation of erythromycin-induced antibacterial activity against Klebsiella pneumoniae ATCC 13883 assessed as minimum modulatory concentration up to 32 uM measured after 16 hrs in presence of MIC/4 erythromycin; assay type: functional; settings: ATCC 13883, 16 h, read-out: MEC
[24] = tested on: Enterococcus faecium; experiment: Potentiation of methicillin-induced antibacterial activity against Enterococcus faecium ATCC 700221 assessed as minimum modulatory concentration up to 32 uM measured after 16 hrs in presence of MIC/4 methicillin; assay type: functional; settings: ATCC 700221, 16 h, read-out: MEC
[25] = tested on: Enterococcus faecium; experiment: Potentiation of ciprofloxacin-induced antibacterial activity against Enterococcus faecium ATCC 700221 assessed as minimum modulatory concentration up to 32 uM measured after 16 hrs in presence of MIC/4 ciprofloxacin; assay type: functional; settings: ATCC 700221, 16 h, read-out: MEC
[26] = tested on: Enterococcus faecium; experiment: Potentiation of tetracycline-induced antibacterial activity against Enterococcus faecium ATCC 700221 assessed as minimum modulatory concentration up to 32 uM measured after 16 hrs in presence of MIC/4 tetracycline; assay type: functional; settings: ATCC 700221, 16 h, read-out: MEC
[27] = tested on: Enterococcus faecium; experiment: Potentiation of erythromycin-induced antibacterial activity against Enterococcus faecium ATCC 700221 assessed as minimum modulatory concentration up to 32 uM measured after 16 hrs in presence of MIC/4 erythromycin; assay type: functional; settings: ATCC 700221, 16 h, read-out: MEC
[28] = tested on: Pseudomonas aeruginosa; experiment: Potentiation of methicillin-induced antibacterial activity against Pseudomonas aeruginosa ATCC BAA-2108 assessed as minimum modulatory concentration up to 32 uM measured after 16 hrs in presence of MIC/4 methicillin; assay type: functional; settings: ATCC BAA-2108, 16 h, read-out: MEC
[29] = tested on: Pseudomonas aeruginosa; experiment: Potentiation of tetracycline-induced antibacterial activity against Pseudomonas aeruginosa ATCC BAA-2108 assessed as minimum modulatory concentration up to 32 uM measured after 16 hrs in presence of MIC/4 tetracycline; assay type: functional; settings: ATCC BAA-2108, 16 h, read-out: MEC
[30] = tested on: Pseudomonas aeruginosa; experiment: Potentiation of erythromycin-induced antibacterial activity against Pseudomonas aeruginosa ATCC BAA-2108 assessed as minimum modulatory concentration up to 32 uM measured after 16 hrs in presence of MIC/4 erythromycin; assay type: functional; settings: ATCC BAA-2108, 16 h, read-out: MEC
[31] = tested on: Escherichia coli; experiment: Potentiation of ciprofloxacin-induced antibacterial activity against Escherichia coli ATCC 43894 assessed as minimum modulatory concentration up to 32 uM measured after 16 hrs in presence of MIC/4 ciprofloxacin; assay type: functional; settings: ATCC 43894, 16 h, read-out: MEC
[32] = tested on: Escherichia coli; experiment: Potentiation of tetracycline-induced antibacterial activity against Escherichia coli ATCC 43894 assessed as minimum modulatory concentration up to 32 uM measured after 16 hrs in presence of MIC/4 tetracycline; assay type: functional; settings: ATCC 43894, 16 h, read-out: MEC
[33] = tested on: Escherichia coli; experiment: Potentiation of erythromycin-induced antibacterial activity against Escherichia coli ATCC 43894 assessed as minimum modulatory concentration up to 32 uM measured after 16 hrs in presence of MIC/4 erythromycin; assay type: functional; settings: ATCC 43894, 16 h, read-out: MEC

SMILES	IC50 [1]	inhibition [2]	inhibition [3]	Activity [4]	Activity [5]	Activity [6]	Activity [7]	Activity [8]	minimal effective concentration [9]	minimal effective concentration [10]	minimal effective concentration [11]	minimal effective concentration [12]	minimal effective concentration [13]	minimal effective concentration [14]	minimal effective concentration [15]	minimal effective concentration [16]	minimal effective concentration [17]	minimal effective concentration [18]	minimal effective concentration [19]	minimal effective concentration [20]	other results
Cc1cc(C(=O)O)c(O)c(Cc2ccccc2)n1	> 100 µM	inactive	inactive	Non-Toxic	Non-Toxic	Non-Toxic	Non-Toxic	Non-Toxic	> 32 µM	> 32 µM	> 32 µM	> 32 µM	> 32 µM	> 32 µM	> 32 µM	> 32 µM	16 µM	> 32 µM	> 32 µM	> 32 µM	minimal effective concentration [21]: > 32 µM; minimal effective concentration [22]: > 32 µM; minimal effective concentration [23]: > 32 µM; minimal effective concentration [24]: > 32 µM; minimal effective concentration [25]: > 32 µM; minimal effective concentration [26]: > 32 µM; minimal effective concentration [27]: > 32 µM; minimal effective concentration [28]: > 32 µM; minimal effective concentration [29]: > 32 µM; minimal effective concentration [30]: > 32 µM; minimal effective concentration [31]: > 32 µM; minimal effective concentration [32]: > 32 µM; minimal effective concentration [33]: > 32 µM
C[n+]1ccc(C(=O)[O-])c(O)c1Cc1ccccc1	> 100 µM	inactive	inactive	Non-Toxic	Non-Toxic	Non-Toxic	Non-Toxic	Non-Toxic	> 32 µM	> 32 µM	> 32 µM	> 32 µM	> 32 µM	> 32 µM	> 32 µM	> 32 µM	> 32 µM	> 32 µM	> 32 µM	> 32 µM	minimal effective concentration [21]: > 32 µM; minimal effective concentration [22]: > 32 µM; minimal effective concentration [23]: > 32 µM; minimal effective concentration [24]: > 32 µM; minimal effective concentration [25]: > 32 µM; minimal effective concentration [26]: > 32 µM; minimal effective concentration [27]: > 32 µM; minimal effective concentration [28]: > 32 µM; minimal effective concentration [29]: > 32 µM; minimal effective concentration [30]: > 32 µM; minimal effective concentration [31]: > 32 µM; minimal effective concentration [32]: > 32 µM; minimal effective concentration [33]: > 32 µM
Cc1nc(-c2ccccc2)c(O)cc1C(=O)O	97.4 µM	inactive	inactive	Non-Toxic	Non-Toxic	Non-Toxic	Non-Toxic	Non-Toxic	0.5 µM	4 µM	16 µM	4 µM	4 µM	4 µM	2 µM	> 32 µM	4 µM	4 µM	> 32 µM	> 32 µM	minimal effective concentration [21]: > 32 µM; minimal effective concentration [22]: > 32 µM; minimal effective concentration [23]: > 32 µM; minimal effective concentration [24]: 0.5 µM; minimal effective concentration [25]: > 32 µM; minimal effective concentration [26]: 1 µM; minimal effective concentration [27]: 4 µM; minimal effective concentration [28]: 16 µM; minimal effective concentration [29]: > 32 µM; minimal effective concentration [30]: 4 µM; minimal effective concentration [31]: > 32 µM; minimal effective concentration [32]: > 32 µM; minimal effective concentration [33]: > 32 µM
COc1cccc(-c2cc(C(=O)O)c(O)cn2)c1	88.6 µM	inactive	inactive	Non-Toxic	Non-Toxic	Non-Toxic	Non-Toxic	Non-Toxic	16 µM	> 32 µM	> 32 µM	> 32 µM	> 32 µM	> 32 µM	> 32 µM	> 32 µM	> 32 µM	> 32 µM	> 32 µM	> 32 µM	minimal effective concentration [21]: > 32 µM; minimal effective concentration [22]: > 32 µM; minimal effective concentration [23]: > 32 µM; minimal effective concentration [24]: 16 µM; minimal effective concentration [25]: > 32 µM; minimal effective concentration [26]: > 32 µM; minimal effective concentration [27]: > 32 µM; minimal effective concentration [28]: > 32 µM; minimal effective concentration [29]: > 32 µM; minimal effective concentration [30]: > 32 µM; minimal effective concentration [31]: > 32 µM; minimal effective concentration [32]: > 32 µM; minimal effective concentration [33]: > 32 µM
